Assay results: patent US20240216444A1, “DESIGNED BACTERIAL COMPOSITIONS” (Seres Therapeutics, Inc., priority 2015, published 2024)
Read-outs that look alike come from different tables or passages of the source.

Columns and labels:
[1] = Indole spot test of supernatants on paper soaked with Indole Reagent; settings: 4 μL spotted on paper soaked with Indole Reagent
[2] = test system: HDAC enzymes (HeLa nuclear extract); assay: HDAC-Glo I/II assay with serial dilutions of SCFAs; type: biochemical; settings: for HDAC inhibition activity at the highest tested concentration: 3.75 mM
Description: For this experiment, the HeLa nuclear extract provided in the kit was used as the source of HDAC enzymes. […] In this assay, deacetylation of the provided substrate by HDACs results in a luminescence signal that is detected with a suitable plate reader (Spectramax m5). HDAC inhibition decreases the luminescence signal compared to the no inhibitor control. The experiment was carried out according to the manufacturer's instructions as follows: 50 μL of HeLa nuclear extract diluted 1:3000 in assay buffer was mixed with 50 μL of inhibitor solution (serial dilutions of SCFAs in assay buffer) and incubated for 30 minutes. 100 μL of developer solution were added to each well, and luminescence was measured after 45 minutes of incubation at room temperature.

[3] = test system: C. difficile carbon sources; assay: Carbon source utilization, 87 carbon sources in three base media, OD600 and acid production (Example 3B); type: cell-based; set-up: key: “+” and “w” refer to “positive” and “weak” utilization of the carbon source, respectively; “+” and “w” refer to “positive” and “weak” utilization of the carbon source, respectively
Description: Three C. difficile strains and 12 non-C. difficile bacterial strains were profiled using a panel of carbon sources. As used herein, unless otherwise indicated, carbon sources includes all sources tested as growth substrates in the experiments herein. The three C. difficile strains were Clostridium difficile ATCC 9689, Clostridium difficile ATCC 43593, and Clostridium difficile ATCC 43255, all of which are available from the American Type Culture Collection (ATCC).
Growth of the strains was tested on 87 different carbon sources in a 96-well plate format. The panel contained 34 carbon sources reported to be utilized by C. difficile in the literature (Hafiz and Oakley. 1976 J Med Microbiol 9:129-36; Wilson and Perini. 1988 Infection and Immunity 56:2610-14; Bergey and Holt. Bergey's Manual of Determinative Bacteriology. Baltimore: Williams & Wilkins, 1994; Sebaihia et al. 2006 Nature Genetics 38:779-786) including amino acids, mono-, di-, tri- and polysaccharides, glucoside and sugar alcohols. Carbon sources were added at 0.5% into three different base media (Base medium 1 SSNC composition: beef extract 1 g/L, yeast extract 2 g/L, bacto soytone 6 g/L, NaCl 4 g/L, KH2PO4 5.44 g/L, MgSO4 2 mM, CaCl2 1 mM, MnCl2 0.1 mM, cysteine hydrochloride 0.25 g/L, hemin 10 mg/L, menadione 1 mg/L, MOPS 6.3 g/L, pH 7; Base medium 2 SPOSCR composition: beef extract 1 g/L, yeast extract 2 g/L, bacto soytone 6 g/L, NaCl 4 g/L, KH2PO4 5.44 g/L, MgSO4 2 mM, CaCl2) 1 mM, MnCl2 0.1 mM, cysteine hydrochloride 0.25 g/L, hemin 10 mg/L, menadione 1 mg/L, MOPS 8.4 g/L, NaHCO3 0.4%, pH 7; Base medium 3 YCFA: casitone 10 g/L, yeast extract 2.5 g/L, cysteine hydrochloride 1 g/L, hemin 10 mg/L, ATCC vitamin solution 10 mL/L, ATCC trace element solution 10 mL/L, K2HPO4 0.45 g/L, KH2PO4 0.45 g/L, (NH4)2SO4 0.9 g/L, MgSO4×7H2O 90 mg/L, CaCl2) 90 mg/L, acetic acid 33 mM, propionic acid 9 mM, isobutyric acid 1 mM, isovaleric acid 1 mM, valeric acid 1 mM, pH 7).
Positive growth was scored by measuring optical density at 600 nm and comparing it to growth in base medium without an added carbon source. For two, base media acid production was also scored by measuring optical density at 558 nm of pH-indicator phenol red mixed with spent medium from each culture.

[4] = test system: 7α-dehydroxylation of cholic acid and chenodeoxycholic acid; assay: LC-MS screen for 7α-dehydroxylation (7α-OH) activity; type: biochemical
[5] = test system: HSDH activity (7-, 3- or 12-hydroxyl groups) on cholic, chenodeoxycholic, deoxycholic and lithocholic acid; assay: LC-MS screen for hydroxysteroid dehydrogenase (HSDH) activity; type: biochemical
[6] = test system: bile salt hydrolase (BSH) activity on conjugated bile acids; assay: LC-MS screen for bile salt hydrolase (BSH) activity; settings: for BSH gCA: substrate gCA; for BSH gCDCA: substrate gCDCA; for BSH t-aMCA: substrate t-aMCA; for BSH t-bMCA: substrate t-bMCA; for BSH tCA: substrate tCA; for BSH tCDCA: substrate tCDCA
Description: To conduct the assay, briefly, bacteria were grown on permissive agar media plates for 24 to 48 hours to generate sufficient biomass to carry out assays. The bacterial lawns were resuspended in PBS to create a homogenous suspension that was then used for the BSH assay. To assay for BSH activity, bacterial suspensions were incubated with two separate mixtures of four distinct conjugated bile acids, each at concentration of 150 μg/ml, for 4 hours at 37° C. under anaerobic conditions. The reaction mixture was then extracted with an equal volume of acetonitrile, spun down to pellet bacteria and the supernatant filtered through a 0.2 μM filter to generate a sample for LC-MS analysis. Bile acids were determined using an Agilent 1260 HPLC coupled to a Bruker Compact qTOF MS. Samples were run on a bidentate C18 column using an acetonitrile:water buffer system to separate bile acids which were then ionized in negative mode and identified using a qTOF-MS. BSH activity was determined by the formation of deconjugated bile acid products that were verified by comparison to known standards and quantified, if necessary, using standard curves.

[7] = LC-MS, substrate chenodeoxycholic acid

Cc1c[nH]c2ccccc12 [3-methyl-indole]
colour in indole spot test [1]: purple spots

c1ccc2[nH]ccc2c1 [Indole, indole]
colour in indole spot test [1]: light blue color

CC(O)C(=O)O (centres unmarked) [Lactate]
HDAC inhibition activity at the highest tested concentration [2]: minimal HDAC inhibition activity

CC(=O)O [acetate]
HDAC inhibition activity at the highest tested concentration [2]: minimal HDAC inhibition activity

O=C(O)CCCc1c[nH]c2ccccc12 [indole-3-butyric acid]
colour in indole spot test [1]: purple spots

O=C(O)CCc1c[nH]c2ccccc12 [indole-3-propionic acid]
colour in indole spot test [1]: purple spots

CCC(=O)O [propionate]
IC50 ([2]; HeLa nuclear extract, HDAC-Glo I/II, read-out: HDAC inhibition IC50): 2400 µM

NCCc1c[nH]c2ccccc12 [tryptamine]
colour in indole spot test [1]: purple spots

Blautia producta
utilization of carbon source Apple pectin ([3]; Apple pectin): +
utilization of carbon source Citrus pectin ([3]; Citrus pectin): +
utilization of carbon source NAG ([3]; NAG (N-acetylglucosamine)): +
utilization of carbon source alanine ([3]; alanine): +
utilization of carbon source asparagine ([3]; asparagine): +
utilization of carbon source cellobiose ([3]; cellobiose): +
utilization of carbon source cysteine ([3]; cysteine): w
utilization of carbon source dulcitol ([3]; dulcitol): +
utilization of carbon source esculin ([3]; esculin): +
utilization of carbon source formate ([3]; formate): +
utilization of carbon source fructose ([3]; fructose): +
utilization of carbon source glucose ([3]; glucose): +
utilization of carbon source glutamine ([3]; glutamine): w
utilization of carbon source glycochenodeoxycholate ([3]; glycochenodeoxycholate): w
utilization of carbon source mannitol ([3]; mannitol): +
utilization of carbon source mannose ([3]; mannose): +
utilization of carbon source melezitose ([3]; melezitose): +
utilization of carbon source oxalate ([3]; oxalate): w
utilization of carbon source polygalacturonate ([3]; polygalacturonate): +
utilization of carbon source rhamnose ([3]; rhamnose): +
utilization of carbon source ribose ([3]; ribose): +
utilization of carbon source salicin ([3]; salicin): +
utilization of carbon source serine ([3]; serine): +
utilization of carbon source sialic acid ([3]; sialic acid): +
utilization of carbon source sorbitol ([3]; sorbitol): +
utilization of carbon source sucrose ([3]; sucrose): +
utilization of carbon source taurochenodeoxycholate ([3]; taurochenodeoxycholate): w
utilization of carbon source threonine ([3]; threonine): w
utilization of carbon source trehalose ([3]; trehalose): +
utilization of carbon source xylitol ([3]; xylitol): +
utilization of carbon source xylose ([3]; xylose): +
7a Dehydrox CA ([4]; LC-MS, substrate CA): −
7a Dehydrox CDCA ([4]; LC-MS, substrate CDCA): −
HSDH 3a ([5]; LC-MS): −
HSDH 7a ([5]; LC-MS): −
HSDH 12a ([5]; LC-MS): −
BSH gCA [6]: −
BSH gCDCA [6]: −
BSH t-aMCA [6]: −
BSH t-bMCA [6]: −
BSH tCA [6]: −
BSH tCDCA [6]: −

Blautia_producta
7a Dehydrox CDCA [4, 7]: −
7a Dehydrox CA ([4]; LC-MS, substrate cholic acid): −
HSDH 3a ([5]; LC-MS, 3a-HSDH): −
HSDH 7a ([5]; LC-MS, 7a-HSDH): −
HSDH 12a ([5]; LC-MS, 12a-HSDH): −

Clostridium butyricum
7a Dehydrox CA [4]: −
7a Dehydrox CDCA [4]: −
HSDH 3a [5]: −
HSDH 12a [5]: −

Clostridium paraputrificum
BSH gCA [6]: + (‘+’ indicates greater than 50-fold increase in levels of product bile acid, suggesting strong activity)
BSH gCDCA [6]: + (‘+’ indicates greater than 50-fold increase in levels of product bile acid, suggesting strong activity)
BSH t-aMCA [6]: + (‘+’ indicates greater than 50-fold increase in levels of product bile acid, suggesting strong activity)
BSH t-bMCA [6]: + (‘+’ indicates greater than 50-fold increase in levels of product bile acid, suggesting strong activity)
BSH tCA [6]: + (‘+’ indicates greater than 50-fold increase in levels of product bile acid, suggesting strong activity)
BSH tCDCA [6]: + (‘+’ indicates greater than 50-fold increase in levels of product bile acid, suggesting strong activity)

Clostridium sp_7_2_43FAA
7a Dehydrox CDCA [4, 7]: −
7a Dehydrox CA ([4]; LC-MS, substrate cholic acid): −
HSDH 3a ([5]; LC-MS, 3a-HSDH): +/− (‘+/−’ indicates ≤50-fold change in product bile acid levels, suggesting weak activity)
HSDH 7a ([5]; LC-MS, 7a-HSDH): + (‘+’ indicates greater than 50-fold increase in levels of product bile acid, suggesting strong activity)
HSDH 12a ([5]; LC-MS, 12a-HSDH): −

Clostridium symbiosum
7a Dehydrox CDCA [4, 7]: −
7a Dehydrox CA ([4]; LC-MS, substrate cholic acid): −
HSDH 3a ([5]; LC-MS, 3a-HSDH): +/− (‘+/−’ indicates ≤50-fold change in product bile acid levels, suggesting weak activity)
HSDH 7a ([5]; LC-MS, 7a-HSDH): + (‘+’ indicates greater than 50-fold increase in levels of product bile acid, suggesting strong activity)
HSDH 12a ([5]; LC-MS, 12a-HSDH): −
BSH gCA [6]: +/− (‘+/−’ indicates ≤50-fold change in product bile acid levels, suggesting weak activity)
BSH gCDCA [6]: + (‘+’ indicates greater than 50-fold increase in levels of product bile acid, suggesting strong activity)
BSH t-aMCA [6]: −
BSH t-bMCA [6]: −
BSH tCA [6]: −
BSH tCDCA [6]: +/− (‘+/−’ indicates ≤50-fold change in product bile acid levels, suggesting weak activity)

Clostridium_glycolicum
BSH gCA [6]: + (‘+’ indicates greater than 50-fold increase in levels of product bile acid, suggesting strong activity)
BSH gCDCA [6]: + (‘+’ indicates greater than 50-fold increase in levels of product bile acid, suggesting strong activity)
BSH t-aMCA [6]: + (‘+’ indicates greater than 50-fold increase in levels of product bile acid, suggesting strong activity)
BSH t-bMCA [6]: + (‘+’ indicates greater than 50-fold increase in levels of product bile acid, suggesting strong activity)
BSH tCA [6]: + (‘+’ indicates greater than 50-fold increase in levels of product bile acid, suggesting strong activity)
BSH tCDCA [6]: + (‘+’ indicates greater than 50-fold increase in levels of product bile acid, suggesting strong activity)

Clostridium_sordellii
7a Dehydrox CDCA [4, 7]: −
7a Dehydrox CA ([4]; LC-MS, substrate cholic acid): −
HSDH 3a ([5]; LC-MS, 3a-HSDH): +/− (‘+/−’ indicates ≤50-fold change in product bile acid levels, suggesting weak activity)
HSDH 7a ([5]; LC-MS, 7a-HSDH): −
HSDH 12a ([5]; LC-MS, 12a-HSDH): −
BSH gCA [6]: + (‘+’ indicates greater than 50-fold increase in levels of product bile acid, suggesting strong activity)
BSH gCDCA [6]: + (‘+’ indicates greater than 50-fold increase in levels of product bile acid, suggesting strong activity)
BSH t-aMCA [6]: + (‘+’ indicates greater than 50-fold increase in levels of product bile acid, suggesting strong activity)
BSH t-bMCA [6]: + (‘+’ indicates greater than 50-fold increase in levels of product bile acid, suggesting strong activity)
BSH tCA [6]: + (‘+’ indicates greater than 50-fold increase in levels of product bile acid, suggesting strong activity)
BSH tCDCA [6]: + (‘+’ indicates greater than 50-fold increase in levels of product bile acid, suggesting strong activity)
